Assay results reported in PubChem BioAssay (NCI).
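All cell lines were grown in 96-well plates and treated with compound for 48 hours. Here, GI50 denotes the concentration required for 50% inhibition of growth. Definition used: TGI = concentration required for complete inhibition of growth.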

Columns and labels:
Test in all cases: inhibition of tumour cell growth, NCI panel, 48 h; in the data active means GI50 below about 0.43 µM; inactive means the rest
786-0 renal = system: 786-0 renal
A498 renal = system: A498 renal
A549 NSCLC = system: A549 NSCLC
BT-549 breast = system: BT-549 breast
CAKI-1 renal = system: CAKI-1 renal
CCRF-CEM leukemia = system: CCRF-CEM leukemia
COLO 205 colon = system: COLO 205 colon
DU-145 prostate = system: DU-145 prostate
EKVX NSCLC = system: EKVX NSCLC
HCC-2998 colon = system: HCC-2998 colon
HCT-116 colon = system: HCT-116 colon
HCT-15 colon = system: HCT-15 colon
HL-60(TB) leukemia = system: HL-60(TB) leukemia
HOP-62 NSCLC = system: HOP-62 NSCLC
HOP-92 NSCLC = system: HOP-92 NSCLC
HS 578T breast = system: HS 578T breast
HT29 colon = system: HT29 colon
IGROV1 ovarian = system: IGROV1 ovarian
K-562 leukemia = system: K-562 leukemia
KM12 colon = system: KM12 colon
LOX IMVI melanoma = system: LOX IMVI melanoma
M14 melanoma = system: M14 melanoma
MALME-3M melanoma = system: MALME-3M melanoma
MCF7 breast = system: MCF7 breast
MDA-MB-231 breast = system: MDA-MB-231 breast
MDA-MB-435 = system: MDA-MB-435
MDA-MB-468 breast = system: MDA-MB-468 breast
MOLT-4 leukemia = system: MOLT-4 leukemia
NCI-H23 lung = system: NCI-H23 lung
NCI-H460 lung = system: NCI-H460 lung
NCI-H522 lung = system: NCI-H522 lung
NCI/ADR-RES ovarian = system: NCI/ADR-RES ovarian
OVCAR-3 ovarian = system: OVCAR-3 ovarian
OVCAR-4 ovarian = system: OVCAR-4 ovarian
OVCAR-5 ovarian = system: OVCAR-5 ovarian
OVCAR-8 ovarian = system: OVCAR-8 ovarian
PC-3 prostate = system: PC-3 prostate
RPMI-8226 leukemia = system: RPMI-8226 leukemia
RXF 393 renal = system: RXF 393 renal
SF-268 CNS = system: SF-268 CNS
SF-295 CNS = system: SF-295 CNS
SF-539 CNS = system: SF-539 CNS
SK-MEL-2 melanoma = system: SK-MEL-2 melanoma
SK-MEL-28 melanoma = system: SK-MEL-28 melanoma
SK-MEL-5 melanoma = system: SK-MEL-5 melanoma
SK-OV-3 ovarian = system: SK-OV-3 ovarian
SN12C renal = system: SN12C renal
SNB-19 CNS = system: SNB-19 CNS
SNB-75 CNS = system: SNB-75 CNS
SR leukemia = system: SR leukemia
SW-620 colon = system: SW-620 colon
T-47D breast = system: T-47D breast
TK-10 renal = system: TK-10 renal
U251 CNS = system: U251 CNS
UACC-257 melanoma = system: UACC-257 melanoma
UACC-62 melanoma = system: UACC-62 melanoma
UO-31 renal = system: UO-31 renal

COc1ccc(-c2nc3ccc(-c4nnc(SCc5ccccc5)o4)cc3[nH]2)cc1OC
79.9 µM: TGI (NCI-H23 lung)
38.6 µM: TGI (MDA-MB-468 breast)
94.6 µM: TGI (HOP-92 NSCLC)
46.7 µM: TGI (TK-10 renal)
7.27 µM: TGI (SNB-75 CNS)
11.5 µM: TGI (MALME-3M melanoma)
12.3 µM: TGI (OVCAR-4 ovarian)
> 100 µM: TGI (A498 renal) | TGI (A549 NSCLC) | TGI (BT-549 breast) | TGI (CAKI-1 renal) | TGI (CCRF-CEM leukemia) | TGI (COLO 205 colon) | TGI (DU-145 prostate) | TGI (EKVX NSCLC) | TGI (HCC-2998 colon) | TGI (HCT-116 colon) | TGI (HCT-15 colon) | TGI (HL-60(TB) leukemia) | TGI (HS 578T breast) | TGI (HT29 colon) | TGI (IGROV1 ovarian) | TGI (K-562 leukemia) | TGI (KM12 colon) | TGI (LOX IMVI melanoma) | TGI (M14 melanoma) | TGI (MCF7 breast) | TGI (MDA-MB-435) | TGI (MOLT-4 leukemia) | TGI (NCI-H460 lung) | TGI (NCI-H522 lung) | TGI (NCI/ADR-RES ovarian) | TGI (OVCAR-5 ovarian) | TGI (OVCAR-8 ovarian) | TGI (PC-3 prostate) | TGI (RPMI-8226 leukemia) | TGI (RXF 393 renal) | TGI (SF-268 CNS) | TGI (SF-295 CNS) | TGI (SF-539 CNS) | TGI (SK-MEL-2 melanoma) | TGI (SK-MEL-28 melanoma) | TGI (SK-MEL-5 melanoma) | TGI (SK-OV-3 ovarian) | TGI (SN12C renal) | TGI (SNB-19 CNS) | TGI (SR leukemia) | TGI (SW-620 colon) | TGI (T-47D breast) | TGI (UACC-257 melanoma) | TGI (UO-31 renal)
43.8 µM: TGI (UACC-62 melanoma)
40.2 µM: TGI (786-0 renal)
23.2 µM: TGI (HOP-62 NSCLC) | TGI (MDA-MB-231 breast)
20.4 µM: TGI (U251 CNS)
inactive: GI50 (786-0 renal) 5.88 µM | GI50 (A498 renal) > 100 µM | GI50 (A549 NSCLC) 4.8 µM | GI50 (BT-549 breast) 21.3 µM | GI50 (CAKI-1 renal) > 100 µM | GI50 (CCRF-CEM leukemia) 16.7 µM | GI50 (COLO 205 colon) 38 µM | GI50 (DU-145 prostate) 9.71 µM | GI50 (EKVX NSCLC) 24.9 µM | GI50 (HCC-2998 colon) 57 µM | GI50 (HCT-116 colon) 8.32 µM | GI50 (HCT-15 colon) 13.8 µM | GI50 (HL-60(TB) leukemia) 57.5 µM | GI50 (HOP-62 NSCLC) 3.88 µM | GI50 (HOP-92 NSCLC) 4.17 µM | GI50 (HS 578T breast) 3.5 µM | GI50 (HT29 colon) 16.2 µM | GI50 (IGROV1 ovarian) 36 µM | GI50 (K-562 leukemia) 28.3 µM | GI50 (KM12 colon) > 100 µM | GI50 (LOX IMVI melanoma) 4.74 µM | GI50 (M14 melanoma) 26.5 µM | GI50 (MALME-3M melanoma) 3.18 µM | GI50 (MCF7 breast) 13.8 µM | GI50 (MDA-MB-231 breast) 4.28 µM | GI50 (MDA-MB-435) 21 µM | GI50 (MDA-MB-468 breast) 7.89 µM | GI50 (MOLT-4 leukemia) 27.8 µM | GI50 (NCI-H23 lung) 11 µM | GI50 (NCI-H460 lung) 5.67 µM | GI50 (NCI-H522 lung) 23 µM | GI50 (NCI/ADR-RES ovarian) 11.1 µM | GI50 (OVCAR-3 ovarian) 4.73 µM | GI50 (OVCAR-4 ovarian) 3.08 µM | GI50 (OVCAR-5 ovarian) 32.4 µM | GI50 (OVCAR-8 ovarian) 5.6 µM | GI50 (PC-3 prostate) 19.8 µM | GI50 (RPMI-8226 leukemia) 21.7 µM | GI50 (RXF 393 renal) 3.6 µM | GI50 (SF-268 CNS) 32.7 µM | GI50 (SF-295 CNS) 5.54 µM | GI50 (SF-539 CNS) 6.54 µM | GI50 (SK-MEL-2 melanoma) > 100 µM | GI50 (SK-MEL-28 melanoma) 22 µM | GI50 (SK-MEL-5 melanoma) 7.88 µM | GI50 (SK-OV-3 ovarian) > 100 µM | GI50 (SN12C renal) 7.15 µM | GI50 (SNB-19 CNS) > 100 µM | GI50 (SNB-75 CNS) 2240 nM | GI50 (SR leukemia) 6.45 µM | GI50 (SW-620 colon) 17 µM | GI50 (T-47D breast) 8.53 µM | GI50 (TK-10 renal) 8.62 µM | GI50 (U251 CNS) 4.72 µM | GI50 (UACC-257 melanoma) 56.4 µM | GI50 (UACC-62 melanoma) 7.2 µM | GI50 (UO-31 renal) 57.4 µM
88.9 µM: TGI (OVCAR-3 ovarian)
